# Columns and labels:
# [1] = system: CD19-TCB-induced cytokine release; assay: CD19-TCB NALM-6 assay, inhibitors added after 24 hrs: cytokine release; assay type: cell-based; settings: 100 nM added at 24 hrs; between 24 hrs and 48 hrs
# Procedure: (§1) FIG. 78. In vitro killing assay set-up. PBMCs were co-cultured with CTV labelled NALM-6 cells (E:T=10:1) in the presence of escalating concentrations of CD19-TCB for 24 hrs. At 24 hrs, the culture medium was supplemented with 100 nM dasatinib, 100 nM sirolimus or 100 nM ruxolitinib.
# (§2) To assess whether the mTOR inhibitor sirolimus, the JAK1/2 inhibitor ruxolitinib and the Src inhibitor dasatinib can prevent further release of cytokines induced by the treatment of CD19-TCB, they were added in an in vitro killing assay after 24 hrs of activation (FIG. 78). In this assay CTV labelled NALM-6 tumors cells were co-cultured with PBMCs in the presence of escalating doses of CD19-TCB for 24 hrs. At 24 hrs, 100 nM ruxolitinib, 100 nM sirolimus or 100 nM dasatinib were added in the system. To verify if T cells were activated before the addition of the different kinase inhibitors, tumor cell killing and cytokine release were measured at 24 hrs (FIGS. 79 and 80). Lastly, cytokine release and tumor cell killing were measured at 48 hrs to assess the effect of the addition of 100 nM ruxolitinib, 100 nM sirolimus or 100 nM dasatinib on CD19-TCB-induced cytokine release as compared to the effect on killing.
# NALM-6 tumors cells = assay: CD19-TCB killing assay with NALM-6 cells, inhibitors added after 24 hrs of activation: killing; assay type: cell-based; settings: 100 nM added at 24 hrs; measured at 48 hrs
# Procedure: as §1, §2
# CTV WSU tumor cells = assay: tumor cell killing by PGLALA and CD16 universal CAR-T cells; assay type: cell-based; settings: 100 nM inhibitor, 24 hours; for tumor cell killing by PGLALA CAR-T cells: PGLALA Fc anti-CD20 IgG; for tumor cell killing by CD16 CAR-T cells: wild-type Fc anti-CD20 IgG
# Procedure: FIG. 61. CTV labelled WSU tumor cell killing by PGLALA CAR-T cells (A) and CD16 CAR-T cells (B) in the presence and absence of 100 nM ruxolitinib or 100 nM sirolimus. PGLALA CAR-T cells and CD16 CAR-T cells were co-cultured together with CTV labelled WSU tumor cells (E:T=10:1) and escalating concentrations of anti-CD20 IgG with either PGLALA-Fc (for PGLALA CAR-T cells) or wild-type Fc (for CD16 CAR-T cells) in the presence and absence of 100 nM ruxolitinib (ruxo) or 100 nM sirolimus (siro). At 24 hours, the technical replicates were pooled and stained with a LIVE/DEAD™ Near-IR dye to allow exclusion of dead CTV labelled WSU DLCL2 tumor cells by flow cytometry. 1 representative donor.
# To assess the impact of JAK inhibitor ruxolitinib and mTOR inhibitor sirolimus on cytokine release induced by CAR-T cells, we conducted a killing assay where PGLALA and CD16 universal CAR-T cells (CAR-T cells with a CAR comprising an anti-P329G-Fc scFv (binding to PGLALA Fc) or CD16 (binding to wild-type Fc)) were co-cultured with CTV WSU tumor cells in the presence of escalating concentrations of PGLALA Fc and wild-type Fc anti-CD20 IgG in medium supplemented with 100 nM ruxolitinib or 100 nM sirolimus. To verify whether ruxolitinib and sirolimus interfered with tumor cell killing by CAR-T cells, we measured killing of CTV WSU tumor cells by flow cytometry at 24 hours.
# [2] = system: CD19-TCB-mediated cytokine release; assay: cytokine release upon first CD19-TCB infusion in lymphoma PDX bearing mice (serum); assay type: in vivo; settings: for effects on cytokine levels: compared with obinutuzumab pre-treatment
# Procedure: FIG. 89. In vivo experiment timelines and dosing schedule. Humanized NSG mice were engrafted with a lymphoma PDX (5 million cells, s.c.). […] The kinase inhibitors were given twice on the day of the first CD19-TCB administration (D16, once 1 hour before CD19-TCB, and once afterwards), and then once (sirolimus) or twice (dasatinib, ruxolitinib) on the two following days (D17 and D18), as well as once 1 hour before each subsequent CD19-TCB administration.
# FIG. 94. […] Cytokine levels were measured by Luminex in serum collected 6 hrs post first infusion with CD19-TCB. Mean of n=6-8 mice+SD with *p≤0.05, **p<0.01, ***p<0.001 by 1 way ANOVA (Kruskal Wallis test).
# First, we verified if the PDX cells were killed upon treatment with CD19-TCB in vitro, using a killing assay. The lymphoma PDX cells were co-cultured together with PBMCs (E:T=10:1) in the presence of CD19-TCB. […] Moreover, they were also administered one hour before each subsequent treatment to prevent residual cytokine secretion (FIG. 89).
# [3] = system: CD20-TCB-induced cytokine release; assay: CD20-TCB-induced cytokine release in non-tumor bearing humanized NSG mice (serum, Luminex); assay type: in vivo; settings: serum 4 hours and 24 hours after CD20-TCB; ruxolitinib 30 to 60 mg/kg
# Procedure: FIG. 95. In vivo experiment timelines and dosing schedule.
# Different doses of mTOR, JAK and Src kinase inhibitors were tested to determine the optimal dose that reduces CD20-TCB-induced cytokine release while minimally interfering with B cell depletion. […] The doses of 30 and 60 mg/kg were tested for ruxolitinib and the doses of 10 and 50 mg/kg were tested for dasatinib. To reproduce the clinical route of administration, the different kinase inhibitors were given orally (p.o.) once or twice per day as depicted in FIG. 95. Mice were bled 4 hours and 24 hours after the treatment with CD20-TCB (FIG. 95) to collect serum for cytokine level measurements by Luminex. Additionally, blood was collected 48 hours and 72 hours (termination) post treatment with CD20-TCB to measure the percentage of CD19+ B cells among human CD45+ cells by flow cytometry (FIG. 95).
# [4] = serum 6 hrs post first infusion with CD19-TCB, ruxolitinib 30 mg/kg
SMILES,"further release of IFN-γ, TNF-α, IL-2 and IL-6 [1]",CTV labelled NALM-6 tumor cell killing (NALM-6 tumors cells),tumor cell killing by PGLALA CAR-T cells (CTV WSU tumor cells),tumor cell killing by CD16 CAR-T cells (CTV WSU tumor cells),effects on cytokine levels [2],"IL-2, IFN-γ, TNF-α and IL-6 release upon the first infusion ([2]; serum 6 hrs post first infusion with CD19-TCB)",CD20-TCB-mediated cytokine release other than IL-2 and GM-CSF [3],"further release of IFN-γ, TNF-α and IL-6 [1]","IFN-γ, TNF-α and IL-2 release [2, 4]","IL-6 release [2, 4]"
"CO[C@H]1C[C@@H]2CC[C@@H](C)[C@@](O)(O2)C(=O)C(=O)N2CCCC[C@H]2C(=O)O[C@H]([C@H](C)C[C@@H]2CC[C@@H](O)[C@H](OC)C2)CC(=O)[C@H](C)/C=C(\C)[C@@H](O)[C@@H](OC)C(=O)[C@H](C)C[C@H](C)/C=C/C=C/C=C/1C [sirolimus, Sirolimus]",prevented further release,did not prevent,neither sirolimus nor ruxolitinib prevented,neither sirolimus nor ruxolitinib prevented,stronger than the effect of obinutuzumab pre-treatment,suppressed,,,,
"N#CC[C@H](C1CCCC1)n1cc(-c2ncnc3[nH]ccc23)cn1 [ruxolitinib, Ruxolitinib]",,did not prevent,neither sirolimus nor ruxolitinib prevented,neither sirolimus nor ruxolitinib prevented,stronger than the effect of obinutuzumab pre-treatment,,durably reduced,only prevented further release,to a lower extent,decreased
